Reference: ChEMBL document CHEMBL4261551, “Click chemistry-assisted synthesis of triazolo linked podophyllotoxin conjugates as tubulin polymerization inhibitors” (Medchemcomm, 2017)
Activity calls are given as the source filed them. The rule behind the calls is not given here.

How the values were obtained:
HeLa [1] = test: cells; details: Homo sapiens, 48 h
Description: Cytotoxicity against human HeLa cells after 48 hrs by MTT assay

MCF7 = test: cells; details: Homo sapiens, MCF7, 48 h
Description: Cytotoxicity against human MCF7 cells after 48 hrs by MTT assay

HT-29 = test: Cytotoxicity against human HT-29 cells after 48 hrs by MTT assay; type: functional, cell-based; details: HT-29, 48 h
B16 = test: Cytotoxicity against […] cells after 48 hrs by MTT assay; type: functional, cell-based; details: Mus musculus, B16, 48 h
HeLa [2] = test: Cell cycle arrest in human HeLa cells assessed as accumulation at S phase at 0.5 uM after 48 hrs by propidium iodide staining based flow cytometry (reference value: 11.3%); type: functional
HeLa [3] = test: Induction of apoptosis in human HeLa cells assessed as caspase-3 activation at 0.5 uM after 48 hrs by fluorimetric method relative to control; type: functional
HeLa [4] = test: Cell cycle arrest in human HeLa cells assessed as accumulation at sub-G1 phase at 0.5 uM after 48 hrs by propidium iodide staining based flow cytometry (reference value: 0.9%); type: functional
Tubulin (Homo sapiens) = Tubulin (Homo sapiens) (UniProt P68371+Q9H4B7+P0DPH7+P68366+Q13509+Q71U36+P04350+Q3ZCM7+P07437+P68363+Q9BQE3+Q6PEY2+Q13885+Q9BVA1+Q9BUF5); test: Inhibition of tubulin polymerization in human HeLa cells assessed as disrupted microtubule organization at 0.5 uM after 48 hrs by immunohistochemical analysis; type: cell-based
HeLa [5] = test: Cell cycle arrest in human HeLa cells assessed as accumulation at G2/M phase at 0.5 uM after 48 hrs by propidium iodide staining based flow cytometry (reference value: 19.3%); type: functional
HeLa [6] = test: Cell cycle arrest in human HeLa cells assessed as accumulation at G1 phase at 0.5 uM after 48 hrs by propidium iodide staining based flow cytometry (reference value: 62.5%); type: functional
Sus scrofa = organism: Sus scrofa; test: Inhibition of porcine brain tubulin polymerization at 3 uM after 1 hr by fluorescence assay relative to control
HeLa [7] = test: Induction of apoptosis in human HeLa cells assessed as nuclear fragmentation at 0.5 uM after 48 hrs by Hoechst 33342 staining based fluorescent microscopic method; type: functional, cell-based
HeLa [8] = test: Induction of apoptosis in human HeLa cells assessed as […] condensation at 0.5 uM after 48 hrs by Hoechst 33342 staining based fluorescent microscopic method; type: functional, cell-based

## COc1cc([C@@H]2c3cc4c(cc3[C@@H](NC(=O)Cn3cc(-c5ccccc5)nn3)[C@H]3COC(=O)[C@H]23)OCO4)cc(OC)c1OC
HeLa [1]
  IC50: 19.6 µM
MCF7
  IC50: 8.1 µM
HT-29
  IC50: 20.1 µM
B16
  IC50: 21.5 µM

## COc1ccc2cc(-c3cn(CC(=O)N[C@@H]4c5cc6c(cc5[C@@H](c5cc(OC)c(OC)c(OC)c5)[C@H]5C(=O)OC[C@@H]54)OCO6)nn3)ccc2c1
HeLa [1]
  IC50: 15.4 µM
MCF7
  IC50: 6.9 µM
HT-29
  IC50: 13.6 µM
B16
  IC50: 14.3 µM

## COc1cc([C@@H]2c3cc4c(cc3[C@@H](NC(=O)Cn3cc(-c5ccc(C(C)(C)C)cc5)nn3)[C@H]3COC(=O)[C@H]23)OCO4)cc(OC)c1OC
HeLa [1]
  IC50: 0.9 µM
MCF7
  IC50: 11.3 µM
HeLa [2]
  Activity: 10.1%
HeLa [3]
  fold change (FC): 4 - 6
HT-29
  IC50: 18.6 µM
HeLa [4]
  Activity: 0.2%
Tubulin (Homo sapiens)
  inhibition: Active
HeLa [5]
  Activity: 63.3%
HeLa [6]
  Activity: 12.5%
Sus scrofa
  inhibition: 46.4%
HeLa [7]
  Activity: Active
B16
  IC50: 10.6 µM
HeLa [8]
  Activity: Active

## COc1cc([C@@H]2c3cc4c(cc3[C@@H](NC(=O)Cn3cc(-c5ccccn5)nn3)[C@H]3COC(=O)[C@H]23)OCO4)cc(OC)c1OC
HeLa [1]
  IC50: 23.6 µM
MCF7
  IC50: 14.5 µM
HT-29
  IC50: 18.4 µM
B16
  IC50: 19.5 µM

## COc1cc([C@@H]2c3cc4c(cc3[C@@H](NC(=O)Cn3cc(-c5cccc(N)c5)nn3)[C@H]3COC(=O)[C@H]23)OCO4)cc(OC)c1OC
HeLa [1]
  IC50: 25.4 µM
MCF7
  IC50: 21.9 µM
HT-29
  IC50: 15.6 µM
B16
  IC50: 22.5 µM

## COc1cc([C@@H]2c3cc4c(cc3[C@@H](NC(=O)Cn3cc(-c5cccs5)nn3)[C@H]3COC(=O)[C@H]23)OCO4)cc(OC)c1OC
HeLa [1]
  IC50: 6.5 µM
MCF7
  IC50: 8.9 µM
HT-29
  IC50: 19.5 µM
B16
  IC50: 18.2 µM

## COc1cc([C@@H]2c3cc4c(cc3[C@@H](NC(=O)Cn3cc(-c5cncn5C)nn3)[C@H]3COC(=O)[C@H]23)OCO4)cc(OC)c1OC
HeLa [1]
  IC50: 2.3 µM
MCF7
  IC50: 22.4 µM
HT-29
  IC50: 10.6 µM
B16
  IC50: 10.8 µM

## COc1cc([C@@H]2c3cc4c(cc3[C@@H](NC(=O)Cn3cc(CCC5C(=O)c6ccccc6C5=O)nn3)[C@H]3COC(=O)[C@H]23)OCO4)cc(OC)c1OC
HeLa [1]
  IC50: 2.6 µM
MCF7
  IC50: 7.2 µM
HT-29
  IC50: 18.5 µM
B16
  IC50: 14.7 µM

## COc1cc([C@@H]2c3cc4c(cc3[C@@H](NC(=O)Cn3cc(-c5ccc(Br)cc5)nn3)[C@H]3COC(=O)[C@H]23)OCO4)cc(OC)c1OC
HeLa [1]
  IC50: 0.07 µM
MCF7
  IC50: 0.9 µM
HeLa [2]
  Activity: 10.5%
HeLa [3]
  fold change (FC): 4 - 6
HT-29
  IC50: 0.1 µM
HeLa [4]
  Activity: 0.1%
Tubulin (Homo sapiens)
  inhibition: Active
HeLa [5]
  Activity: 62.7%
HeLa [6]
  Activity: 13.9%
Sus scrofa
  inhibition: 48.5%
HeLa [7]
  Activity: Active
B16
  IC50: 10.1 µM
HeLa [8]
  Activity: Active

## COc1cc([C@@H]2c3cc4c(cc3[C@H](O)[C@H]3COC(=O)[C@H]23)OCO4)cc(OC)c1OC [PODOFILOX]
HeLa [1]
  IC50: 2.36 µM
MCF7
  IC50: 3.75 µM
HeLa [3]
  Activity: Active
HT-29
  IC50: 1.26 µM
Sus scrofa
  inhibition: 50.2%
B16
  IC50: 2.12 µM

## COc1cc([C@@H]2c3cc4c(cc3[C@@H](NC(=O)Cn3cc(-c5ccc(C)cc5)nn3)[C@H]3COC(=O)[C@H]23)OCO4)cc(OC)c1OC
HeLa [1]
  IC50: 16.8 µM
MCF7
  IC50: 17.1 µM
HT-29
  IC50: 22.5 µM
B16
  IC50: 23.5 µM

## COc1cc([C@@H]2c3cc4c(cc3[C@@H](NC(=O)Cn3cc(-c5cccc(Cl)c5)nn3)[C@H]3COC(=O)[C@H]23)OCO4)cc(OC)c1OC
HeLa [1]
  IC50: 28.4 µM
MCF7
  IC50: 38.2 µM
HT-29
  IC50: 17.5 µM
B16
  IC50: 23.6 µM

## COc1ccc(-c2cn(CC(=O)N[C@@H]3c4cc5c(cc4[C@@H](c4cc(OC)c(OC)c(OC)c4)[C@H]4C(=O)OC[C@@H]43)OCO5)nn2)cc1OC
HeLa [1]
  IC50: 17.9 µM
MCF7
  IC50: 15.8 µM
HT-29
  IC50: 13.9 µM
B16
  IC50: 22.4 µM

## COc1cc([C@@H]2c3cc4c(cc3[C@@H](O[C@@H]3O[C@@H]5CO[C@@H](C)O[C@H]5[C@H](O)[C@H]3O)[C@H]3COC(=O)[C@H]23)OCO4)cc(OC)c1O [ETOPOSIDE]
HeLa [1]
  IC50: 2.24 µM
MCF7
  IC50: 1.36 µM
HT-29
  IC50: 1.98 µM
B16
  IC50: 1.85 µM
